Usually Kd stands for the equilibrium constant for the complex coming apart. Read a high Kd as weaker binding.

The target in series [1] is T1, MAGE-A3111-125 peptide (Homo sapiens, UniProt P43357). Put plainly: Peptide-magnetic bead binding assay with elution and PCR amplification (FIG. 1). Conditions: peptide on streptavidin-coupled magnetic beads. From the text:
FIG. 1 is a photograph illustrating the PCR results of the binding affinity and specificity between Ap52 of Example 2 and specified peptides, in which peptide MAGE-A3111-125 (+), NY-ESO-1119-143 (N1), NY-ESO-1157-170 (N2), NY-ESO-187-111 (N3), or no peptide (−) were reacted with Ap52, followed by elution and PCR amplification; PB served as a control of oligonucleotide aptamer;
A total of ninety-four different sequences were obtained and further assayed individually for its binding affinity and specificity to MAGE-A3111-125. Plasmid DNA was first amplified by use of anchored PCR, as described above. The resulting ssDNA products were purified through 12% denaturing PAGE and incubated with the biotinylated peptide MAGE-A3111-125, which was pre-incubated with the streptavidin-coupled magnetic beads and thus formed a peptide-magnetic bead complex through the streptavidin-biotin interaction. The sequences that bound specifically to the peptide MAGE-A3111-125 were isolated by the magnet and subject to further purification, as the procedure described in library selection.
Thus, Ap52 is highly specific in terms of binding with MAGE-A3111-125 peptide.

Series [2] addresses T1, MAGE-A3111-125 peptide. As to the kind of experiment: Isothermal titration calorimetry (ITC) for dissociation constant (Kd) determination. Type of series: binding. The protocol:
Isothermal Titration Calorimetry (ITC) for Dissociation Constant (Kd) Determination
Thermodynamic profile of the interaction between DNA and peptide was measured with a MicroCal iTC200 (GE Healthcare Life Sciences) at 25° C. in washing buffer (0.45% glucose, 5 mM MgCl2, in Dulbecco's Phosphate-Buffered Saline). The unmodified MAGE-A3111-125 peptide (0.3 mM, 200 μl) was titrated with 18 successive injections of 2 μl aptamer (0.1 mM) at 150 s intervals. The data were analyzed using MicroCal Origin 7 and fit with a one-set-of sites binding model to obtain values of enthalpy change (AH) and association constant (Ka).
Isothermal titration calorimetry (ITC) is a technique used to measure the thermodynamic profile of the interactions between two molecules, and thus can be used to determine the respective binding affinities of Ap16 and Ap52 to MAGE-A3111-125 peptide. […] Therefore, both Ap52 and Ap16 are effective in targeting MAGE-A3111-125-peptide.

Where [3] appears, read: ITC at 25° C. in washing buffer, one-set-of sites binding model.

Take “Ap16-control: 16-nucleotide region (SEQ ID NO: 7) from another oligonucleotide selected from SELEX, used as a negative control (ATCATTCGGATGTGTG; listed as DNA, chemistry not fully specified)”: in the series with MAGE-A3111-125 peptide [1], the “binding to MAGE-A3111-125 peptide” value was “failed to bind”.

In the case of “Ap16: oligonucleotide aptamer of 16 nucleotides AGCACTCAATATTCCC (SEQ ID NO: 1), central randomized region of Ap52 (listed as DNA, chemistry not given here)”, in the series with MAGE-A3111-125 peptide [2] (setting [3]), the Kd is 95 nM and the “ΔH (enthalpy change)” value is -41 kcal/mol. Besides, the “Kd values, in words” value in the series with MAGE-A3111-125 peptide [2] (general statement on binding to the MAGE-A3 peptide) is on record as “nanomolar range”.
